The target in assay [1] is T1, human cloned 5-HT2C receptor, expressed in CHO cells (Homo sapiens, UniProt P28335).
T1 construct: expressed in transfected cells; host or cells: CHO cells
T1 sequence (P28335 33-458): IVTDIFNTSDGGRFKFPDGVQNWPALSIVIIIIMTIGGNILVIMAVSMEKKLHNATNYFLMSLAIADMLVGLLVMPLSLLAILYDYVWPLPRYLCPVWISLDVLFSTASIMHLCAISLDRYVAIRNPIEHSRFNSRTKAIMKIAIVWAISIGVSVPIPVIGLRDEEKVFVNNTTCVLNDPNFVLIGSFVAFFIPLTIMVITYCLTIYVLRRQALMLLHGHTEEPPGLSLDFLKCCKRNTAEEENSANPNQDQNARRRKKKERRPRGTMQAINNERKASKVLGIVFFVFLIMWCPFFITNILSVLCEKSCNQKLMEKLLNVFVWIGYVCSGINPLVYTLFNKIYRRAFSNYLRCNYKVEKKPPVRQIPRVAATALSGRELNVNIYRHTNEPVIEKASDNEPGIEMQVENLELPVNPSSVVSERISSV
As to the kind of experiment: In vitro binding affinity for 5-HT2C receptor ([3H]mesulergine radioligand binding). The settings on record: human cloned 5-HT2C receptor; for IC50: read-out: 5-HT2C pIC50 (converted). On the procedure: In Vitro Binding Affinity for 5-HT2A and 5-HT2C Receptors
The interaction of the compounds of Formula (I) with 5-HT2A and 5-HT2C receptors was assessed in in vitro radioligand binding experiments. […] During the incubation, the radioligands bind to the receptor. When equilibrium of binding is reached, the receptor bound radioactivity is separated from the non-bound radioactivity, and the receptor bound activity is counted. The interaction of the test compounds with the receptors is assessed in competition binding experiments. Various concentrations of the test compound are added to the incubation mixture containing the tissue preparation and the radioligand. Binding of the radioligand will be inhibited by the test compound in proportion to its binding affinity and its concentration.

Assay [2] concerns the target T2, human Dopamine D2L receptor (Homo sapiens, UniProt P14416).
T2 construct: expressed in transfected cells; host or cells: CHO cells
As to the kind of experiment: In vitro binding affinity for human D2L receptor ([3H]Spiperone binding). The following applies: human D2L receptor-transfected CHO cell membranes; for IC50: read-out: D2L pIC50 (converted). How it is done:
In Vitro Binding Affinity for Human D2L Receptor
Frozen membranes of human Dopamine D2L receptor-transfected CHO cells were thawed, briefly homogenised using an Ultra-Turrax T25 homogeniser and diluted in Tris-HCl assay buffer containing NaCl, CaCl2, MgCl2, KCl (50, 120, 2, 1, and 5 mM respectively, adjusted to pH 7.7 with HCl) to an appropriate protein concentration optimised for specific and non-specific binding. Radioligand [^3H]Spiperone (NEN, specific activity ˜70 Ci/mmol) was diluted in assay buffer at a concentration of 2 nmol/L. Prepared radioligand (50 μl), along with 50 μl of either the 10% DMSO control, Butaclamol (10^−6 mol/l final concentration), or compound of interest, was then incubated (30 min, 37° C.) with 400 μl of the prepared membrane solution. Membrane-bound activity was filtered through a Packard Filtermate harvester onto GF/B Unifilterplates and washed with ice-cold Tris-HCl buffer (50 mM; pH 7.7; 6×0.5 ml). Filters were allowed to dry before adding scintillation fluid and counting in a Topcount scintillation counter. Percentage specific bound and competition binding curves were calculated using S-Plus software (Insightful).

In assay [3] the target is T3, NET (norepinephrine transporter) (Rattus norvegicus, UniProt Q63380).
T3 construct: Cortex from rat brain was collected and homogenised; from tissue; host or cells: rat brain cortex
The assay can be described thus: In vitro determination of NET reuptake inhibition ([3H]Nixosetine binding, rat brain cortex). The following applies: rat brain cortex; for IC50: read-out: NET pIC50 (converted). How it is done:
In Vitro Determination of NET Reuptake Inhibition
Cortex from rat brain was collected and homogenised using an Ultra-Turrax T25 and a Dual homogeniser in ice-cold homogenising buffer containing Tris, NaCl and KCl (50 mM, 120 mM and 5 mM, respectively, pH 7.4) prior to dilution to an appropriate protein concentration optimised for specific and non-specific binding. […] Membrane-bound activity was detected by filtration through a Packard Filtermate harvester onto GF/B Unifilterplates, washed with ice-cold Tris-HCl buffer, containing NaCl and KCl (50 mM, 120 mM and 4 mM; pH 7.4; 6×0.5 ml). Filters were allowed to dry for 24 h before adding scintillation fluid. Scintillation fluid was allowed to saturate filters for 24 h before counting in a Topcount scintillation counter. Percentage specific bound and competition binding curves were calculated using S-Plus software (Insightful).

Here are results for 31 compounds from patent US8569267B2, “Tetracyclic tetrahydrofuran derivatives containing cyclic amine side chain” (Janssen Pharmaceutica, NV, priority 2005, dated 2013).

SMILES strings stand for the structures. Where only a bound is given, the exact number is not on record here.

T2 sequence (P14416 whole entry): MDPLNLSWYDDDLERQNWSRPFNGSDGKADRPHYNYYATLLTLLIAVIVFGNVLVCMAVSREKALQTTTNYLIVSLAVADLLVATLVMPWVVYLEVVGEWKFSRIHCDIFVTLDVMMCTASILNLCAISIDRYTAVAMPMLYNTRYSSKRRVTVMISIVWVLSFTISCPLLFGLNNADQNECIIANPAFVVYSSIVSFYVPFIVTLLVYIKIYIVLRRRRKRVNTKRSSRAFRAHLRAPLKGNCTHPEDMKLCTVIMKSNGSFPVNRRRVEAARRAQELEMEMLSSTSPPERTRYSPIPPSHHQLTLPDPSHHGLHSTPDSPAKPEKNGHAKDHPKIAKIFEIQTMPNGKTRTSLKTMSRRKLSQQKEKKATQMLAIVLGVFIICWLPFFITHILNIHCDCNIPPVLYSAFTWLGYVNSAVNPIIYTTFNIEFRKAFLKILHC
T3 sequence (Q63380 1-617): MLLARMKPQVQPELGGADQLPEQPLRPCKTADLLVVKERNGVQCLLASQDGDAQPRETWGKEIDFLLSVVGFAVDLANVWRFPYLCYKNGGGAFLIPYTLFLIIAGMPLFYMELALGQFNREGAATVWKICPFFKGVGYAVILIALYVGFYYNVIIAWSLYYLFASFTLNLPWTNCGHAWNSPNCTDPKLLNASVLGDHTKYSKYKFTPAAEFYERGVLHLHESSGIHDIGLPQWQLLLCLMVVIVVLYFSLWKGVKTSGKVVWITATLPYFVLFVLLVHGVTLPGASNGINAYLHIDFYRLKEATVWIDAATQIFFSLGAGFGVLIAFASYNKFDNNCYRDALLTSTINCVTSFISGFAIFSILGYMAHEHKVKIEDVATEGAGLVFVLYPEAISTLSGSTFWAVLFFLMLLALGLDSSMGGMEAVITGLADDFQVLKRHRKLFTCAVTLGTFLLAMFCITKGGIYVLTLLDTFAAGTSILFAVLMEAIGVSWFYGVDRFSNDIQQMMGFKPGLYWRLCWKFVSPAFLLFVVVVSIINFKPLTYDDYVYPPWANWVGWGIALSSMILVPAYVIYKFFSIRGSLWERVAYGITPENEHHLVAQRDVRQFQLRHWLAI

`OC1CCCN(CC2CC3c4ccccc4Cc4ccc(F)cc4C3O2)C1` (single isomer, unassigned) [Compound 142]: the IC50 in assay [1] was 3.16 nM; in assay [2], 14.5 nM; in assay [3] it was 2400 nM.

With `Cn1cccc1C(=O)NC1CCN(CC2CC3c4ccccc4Cc4ccc(F)cc4C3O2)CC1` (stereo not drawn) [Compound 221], the IC50 in assay [1] was 11 nM; in assay [2] it was 7.76 nM; in assay [3] it was 7240 nM.

As for `CN(C)C(=O)NC1CCN(CC2CC3c4ccccc4Cc4ccc(F)cc4C3O2)CC1` (stereo not drawn) [Compound 243], the IC50 is 3.24 nM in assay [1], 6.76 nM in assay [2] and above 10000 nM in assay [3].

As for `CCCOC(=O)NC1CCN(CC2CC3c4ccccc4Cc4ccc(F)cc4C3O2)CC1` (stereo not drawn) [Compound 212], the results for the IC50 in assay [1], in assay [2] and in assay [3] were 7.41 nM, 6.03 nM and 7080 nM, respectively.

On to `CCOC(=O)CC1CCN(CC2CC3c4ccccc4Cc4ccc(F)cc4C3O2)CC1` (stereo not drawn) [Compound 164, [2R-(2α, 3aα, 12bβ)][1-(11-fluoro-3,3a,8,12b-tetrahydro-2H-1-oxa-dibenzo[e,h]-azulen-2-ylmethyl)-piperidin-4-yl]-acetic acid ethyl ester.oxalate (1:1)], for which the IC50 in assay [1] is 7.59 nM; in assay [2] it was 2.88 nM; in assay [3], 5500 nM.

Take `CC(=O)OC1CCN(C[C@H]2C[C@@H]3c4ccccc4Cc4ccc(F)cc4[C@@H]3O2)CC1` [Compound 166]: the IC50 in assay [1] is below 1 nM; in assay [2], 2.09 nM; in assay [3], 7240 nM.

Take `CC(C)c1ccccc1NC(=O)C1CCN(CC2CC3c4ccccc4Cc4ccc(F)cc4C3O2)CC1` (stereo not drawn) [Compound 185]: the results for the IC50 in assay [1], in assay [2] and in assay [3] were 10.7 nM, 15.5 nM and above 10000 nM, respectively.

As to `Fc1ccc2c(c1)C1OC(CN3CCOC(CCOc4ccccc4)C3)CC1c1ccccc1C2` (mixture of isomers) [Compound 131], the IC50 is 30.9 nM in assay [1], 19.5 nM in assay [2] and 2400 nM in assay [3].

On to `CS(=O)(=O)CCCCNC(=S)NC1CCN(CC2CC3c4ccccc4Cc4ccc(F)cc4C3O2)CC1` (stereo not drawn) [Compound 251], for which the IC50 was 8.51 nM in assay [1], 10.7 nM in assay [2] and 3630 nM in assay [3].

Turning to `N#CC1(c2ccccc2)CCN(C(=O)C2CCN(CC3CC4c5ccccc5Cc5ccc(F)cc5C4O3)CC2)CC1` (stereo not drawn) [Compound 208], the figures for the IC50 in assay [1], in assay [2] and in assay [3] were 7.94 nM, 22.9 nM and above 10000 nM, respectively.

For the compound `COc1cc(NC(=S)NC2CCN(CC3CC4c5ccccc5Cc5ccc(F)cc5C4O3)CC2)cc(OC)c1OC` (stereo not drawn) [Compound 255], the IC50 was 20.4 nM in assay [1], 20.4 nM in assay [2] and 5620 nM in assay [3].

Turning to `O=C(NC1CCN(CC2CC3c4ccccc4Cc4ccc(F)cc4C3O2)CC1)c1cccc(C(F)(F)F)c1` (stereo not drawn) [Compound 233], the IC50 was 30.9 nM in assay [1], 14.8 nM in assay [2] and 5250 nM in assay [3].

In the case of `O=C(NC1CCN(CC2CC3c4ccccc4Cc4ccc(F)cc4C3O2)CC1)c1ccc(-c2ccccc2)cc1` (stereo not drawn) [Compound 237], the values for the IC50 in assay [1], in assay [2] and in assay [3] were 38 nM, 58.9 nM and 7940 nM, respectively.

Consider `CC1c2ccccc2C2CC(CN3CCC(O)C3)OC2c2cc(F)ccc21.O=C(O)C(=O)O` (mixture of isomers) [Compound 45], for which the “5-HT2C pIC50” value in assay [1] was 8.66. The “D2L pIC50” value in assay [2] came out at 6.46. In assay [3], the “NET pIC50” value stood at 7.33.

For the compound `OCC1CCN(CC2CC3c4ccccc4Cc4ccc(F)cc4C3O2)CC1` (stereo not drawn) [Compound 151], the values for the IC50 in assay [1], in assay [2] and in assay [3] were 1.23 nM, 1.35 nM and above 10000 nM, respectively.

Regarding `O=C(NC1CCN(CC2CC3c4ccccc4Cc4ccc(F)cc4C3O2)CC1)c1cccc(Cl)c1Cl` (stereo not drawn) [Compound 228], the IC50 in assay [1] was 20.9 nM; in assay [2] it was 9.12 nM; in assay [3] it was 7940 nM.

For the compound `OCCC1CCCN(CC2CC3c4ccccc4Cc4ccc(F)cc4C3O2)C1` (mixture of isomers) [Compound 152], the IC50 in assay [1] is 4.17 nM; in assay [2], 17 nM; in assay [3], 3800 nM.

On to `O=C(NCc1ccco1)C1CCN(CC2CC3c4ccccc4Cc4ccc(F)cc4C3O2)CC1` (stereo not drawn) [Compound 194], for which the IC50 in assay [1] was 1.45 nM; in assay [2], 5.01 nM; in assay [3], 9120 nM.

For the compound `O=C(NC1CCN(CC2CC3c4ccccc4Cc4ccc(F)cc4C3O2)CC1)c1ccccc1F` (stereo not drawn) [Compound 232], the IC50 was 9.77 nM in assay [1], 4.79 nM in assay [2] and 4070 nM in assay [3].

In the case of `CC(C)(C)CC(C)(C)NC(=O)NC1CCN(CC2CC3c4ccccc4Cc4ccc(F)cc4C3O2)CC1` (stereo not drawn) [Compound 245], the IC50 is 22.9 nM in assay [1], 23.4 nM in assay [2] and 3980 nM in assay [3].

`O=C(NC1CCN(CC2CC3c4ccccc4Cc4ccc(F)cc4C3O2)CC1)c1ccccc1Br` (stereo not drawn) [Compound 226]: the figures for the IC50 in assay [1], in assay [2] and in assay [3] were 6.61 nM, 5.37 nM and 10500 nM, respectively.

In the case of `CC(=O)N1CCC(C(=O)NC2CCN(CC3CC4c5ccccc5Cc5ccc(F)cc5C4O3)CC2)CC1` (stereo not drawn) [Compound 224], the IC50 is 12.9 nM in assay [1], 3.39 nM in assay [2] and above 10000 nM in assay [3].

As to `O=C(NCc1cccc(I)c1)C1CCN(CC2CC3c4ccccc4Cc4ccc(F)cc4C3O2)CC1` (stereo not drawn) [Compound 196], the IC50 in assay [1] was 5.01 nM; in assay [2] it was 14.1 nM; in assay [3], 2750 nM.

`OC1CCCN(CC2CC3c4ccccc4Cc4ccc(F)cc4C3O2)C1` (single isomer, unassigned) [Compound 143]: the IC50 in assay [1] is 1.82 nM; in assay [2], 12.6 nM; in assay [3], above 10000 nM.

With `O=C(O)C(=O)O.O[C@H]1CCN(C[C@H]2C[C@@H]3c4ccccc4Cc4ccc(F)cc4[C@@H]3O2)C1` [Compound 3], the “5-HT2C pIC50” value in assay [1] is on record as 9.57. Besides, in assay [2], the “D2L pIC50” value stood at 8.01. Besides, the “NET pIC50” value in assay [3] was determined as 5.45.

Regarding `CC1c2ccccc2C2CC(CN3CCC(O)C3)OC2c2cc(F)ccc21` (mixture of isomers) [Compound 46], the values for the IC50 in assay [1], in assay [2] and in assay [3] were 1.1 nM, 17.4 nM and 2400 nM, respectively.

As to `O=C(NC1CCN(CC2CC3c4ccccc4Cc4ccc(F)cc4C3O2)CC1)c1ccc(Cl)c(Cl)c1` (stereo not drawn) [Compound 229], the IC50 in assay [1] is 24 nM; in assay [2], 14.8 nM; in assay [3], above 10000 nM.

For `CC(C)(C)OC(=O)N1CCN(C(=O)C2CCN(CC3CC4c5ccccc5Cc5ccc(F)cc5C4O3)CC2)CC1` (stereo not drawn) [Compound 206], the figures for the IC50 in assay [1], in assay [2] and in assay [3] were 9.33 nM, 40.7 nM and 1700 nM, respectively.

In the case of `O=C(NC1CCN(CC2CC3c4ccccc4Cc4ccc(F)cc4C3O2)CC1)NC1CC1c1ccccc1` (mixture of isomers) [Compound 246], the IC50 is 5.75 nM in assay [1], 11.7 nM in assay [2] and 1350 nM in assay [3].

For the compound `O=C(C1CCN(CC2CC3c4ccccc4Cc4ccc(F)cc4C3O2)CC1)N1CC=C(c2ccccc2)CC1` (stereo not drawn) [Compound 207], the values for the IC50 in assay [1], in assay [2] and in assay [3] were 6.76 nM, 25.7 nM and 6170 nM, respectively.

With `O=C(O)C(=O)O.O[C@@H]1CCN(C[C@H]2C[C@@H]3c4ccccc4Cc4ccc(F)cc4[C@@H]3O2)C1` [Compound 2], the “5-HT2C pIC50” value in assay [1] amounted to 9.58. Further, in assay [2], the “D2L pIC50” value was determined as 7.86. The “NET pIC50” value in assay [3] was 6.34.
